Experimental data from patent publication US20260200926A1, “TREM2 MODULATORS” (Muna Therapeutics ApS, priority 2022, published 2026).

Target: T1, Human TREM2 (Homo sapiens, UniProt Q9NZC2)
T1 construct: expressed in transfected cells
Assay: Human TREM2 activity: cellular phosphorylation of Syk (AlphaLISA SureFire Ultra p-SYK) in HEK293/DAP12+TREM2 stable cell line
Format: cell-based
Conditions: for Emax: HEK293, maximal response relative to reference agonist example 1B (remaining examples), read-out: Emax; for EC50: phospho-Syk AlphaLISA signal, HEK293/DAP12+TREM2 cells, concentration giving 50% of maximal response, read-out: EC50
Summary of the method: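 HEK293 cells stably co-expressing human TREM2 and DAP12 were seeded at 10,000 cells/well and used 20–24 h later. Compounds were tested at 8 concentrations (top 100 μM, 1:6 steps, 0.5% DMSO) for 30 min at 37 °C. Syk phosphorylation at Tyr525/526 was read in lysates by AlphaLISA SureFire Ultra.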

T1 sequence (Q9NZC2 19-230): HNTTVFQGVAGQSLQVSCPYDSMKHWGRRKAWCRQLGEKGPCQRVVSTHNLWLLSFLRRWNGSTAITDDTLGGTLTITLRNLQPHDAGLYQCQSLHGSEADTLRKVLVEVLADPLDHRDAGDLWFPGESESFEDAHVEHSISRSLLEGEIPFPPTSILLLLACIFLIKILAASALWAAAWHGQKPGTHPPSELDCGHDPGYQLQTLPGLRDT
T1 sequence (O43914 22-113 partner): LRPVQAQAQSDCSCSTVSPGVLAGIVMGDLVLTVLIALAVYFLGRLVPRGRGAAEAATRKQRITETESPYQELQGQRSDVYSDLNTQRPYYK

Row | Emax [%] | EC50 [nM] | Compound
1 | < 75 | > 1000 | Cc1nc2c(-c3ccc(Cl)cc3F)nc(N3CC[C@H](Oc4cnn(C)c4)C3)nc2c(=O)n1C [Example 74, (S)-8-(4-chloro-2-fluorophenyl)-2,3-dimethyl-6-(3-((1-methyl-1H-pyrazol-4-yl)oxy)pyrrolidin-1-yl)pyrimido[5,4-d]pyrimidin-4 (3H)-one]
2 | < 75 | 100 to 1000 | Cc1nc2c(-c3ccc(Cl)cc3F)nc(N3CCC[C@H](Oc4cnn(C)c4)C3)nc2c(=O)n1C [Example 75, (S)-8-(4-chloro-2-fluorophenyl)-2,3-dimethyl-6-(3-((1-methyl-1H-pyrazol-4-yl)oxy)piperidin-1-yl)pyrimido[5,4-d]pyrimidin-4 (3H)-one]
3 | 75 to 110 | 100 to 1000 | Cc1nc2c(-c3ccc(Cl)cc3F)nc(N3CCC[C@@H](Oc4cnn(C)c4)C3)nc2c(=O)n1C [Example 76, (R)-8-(4-chloro-2-fluorophenyl)-2,3-dimethyl-6-(3-((1-methyl-1H-pyrazol-4-yl)oxy)piperidin-1-yl)pyrimido[5,4-d]pyrimidin-4 (3H)-one]
4 | 75 to 110 | > 1000 | Cc1nc2c(-c3ccc(Cl)cc3F)nc(N3CCC(Oc4cnn(C)c4)CC3)nc2c(=O)n1C [Example 77, 8-(4-chloro-2-fluorophenyl)-2,3-dimethyl-6-(4-((1-methyl-1H-pyrazol-4-yl)oxy)piperidin-1-yl)pyrimido[5,4-d]pyrimidin-4 (3H)-one]
5 | 75 to 110 | 100 to 1000 | Cc1nc2c(-c3ccc(Cl)cc3F)nc(N3CCCC(N4CCOCC4)C3)nc2c(=O)n1C (centres unmarked) [Example 78, 8-(4-chloro-2-fluorophenyl)-2,3-dimethyl-6-(3-morpholinopiperidin-1-yl)pyrimido[5,4-d]pyrimidin-4 (3H)-one]
6 | < 75 | > 1000 | COC1CN(C2CCCN(c3nc(-c4ccc(Cl)cc4F)c4nc(C)n(C)c(=O)c4n3)C2)C1 (centres unmarked) [Example 79, 8-(4-chloro-2-fluorophenyl)-6-(3-(3-methoxyazetidin-1-yl)piperidin-1-yl)-2,3-dimethylpyrimido[5,4-d]pyrimidin-4 (3H)-one]
7 | < 75 | > 1000 | Cc1nc2c(-c3ccc(Cl)cc3F)nc(N3CCCC(N4CC(F)(F)C4)C3)nc2c(=O)n1C (centres unmarked) [Example 80, 8-(4-chloro-2-fluorophenyl)-6-(3-(3,3-difluoroazetidin-1-yl)piperidin-1-yl)-2,3-dimethylpyrimido[5,4-d]pyrimidin-4 (3H)-one]
8 | < 75 | > 1000 | Cc1nc2c(-c3ccc(Cl)cc3F)nc(N3CCOC(c4ncc[nH]4)C3)nc2c(=O)n1C (centres unmarked) [Example 81, 6-(2-(1H-imidazol-2-yl)morpholino)-8-(4-chloro-2-fluorophenyl)-2,3-dimethylpyrimido[5,4-d]pyrimidin-4(3H)-one]
9 | 75 to 110 | > 1000 | Cc1nc2c(-c3ccc(Cl)cc3F)nc(N3CCOC(c4cn(C)cn4)C3)nc2c(=O)n1C (centres unmarked) [Example 82, 8-(4-chloro-2-fluorophenyl)-2,3-dimethyl-6-(2-(1-methyl-1H-imidazol-4-yl)morpholino)pyrimido[5,4-d]pyrimidin-4(3H)-one]
10 | < 75 | > 1000 | Cc1nc2c(-c3ccc(Cl)cc3F)nc(N3CCc4cncnc4CC3)nc2c(=O)n1C [Example 83, 8-(4-chloro-2-fluorophenyl)-2,3-dimethyl-6-(5,6,8,9-tetrahydro-7H-pyrimido[4,5-d]azepin-7-yl)pyrimido[5,4-d]pyrimidin-4(3H)-one]
11 | < 75 | 100 to 1000 | Cc1cnccc1OC1CCN(c2nc(-c3ccc(Cl)cc3F)c3nc(C)n(C)c(=O)c3n2)CC1 [Example 84, 8-(4-chloro-2-fluorophenyl)-2,3-dimethyl-6-(4-((3-methylpyridin-4-yl)oxy)piperidin-1-yl)pyrimido[5,4-d]pyrimidin-4(3H)-one]
12 | < 75 | > 1000 | Cc1nc2c(-c3ccc(Cl)cc3F)nc(N3CCOC4(CCc5ccccc54)C3)nc2c(=O)n1C (centres unmarked) [Example 85, 8-(4-chloro-2-fluorophenyl)-6-(2,3-dihydrospiro[indene-1,2′-morpholin]-4′-yl)-2,3-dimethylpyrimido[5,4-d]pyrimidin-4(3H)-one]
13 | < 75 | > 1000 | Cc1nc2c(-c3ccc(Cl)cc3F)nc(N3CCCc4ccncc4C3)nc2c(=O)n1C [Example 86, 8-(4-chloro-2-fluorophenyl)-2,3-dimethyl-6-(5,6,7,9-tetrahydro-8H-pyrido[3,4-c]azepin-8-yl)pyrimido[5,4-d]pyrimidin-4(3H)-one]
14 | 75 to 110 | > 1000 | Cc1nc2c(C3CCNCC3)nc(N3CCOC(c4cnn(C)c4)C3)nc2c(=O)n1C (centres unmarked) [Example 87, 2,3-dimethyl-6-(2-(1-methyl-1H-pyrazol-4-yl)morpholino)-8-(piperidin-4-yl)pyrimido[5,4-d]pyrimidin-4 (3H)-one]
15 | 75 to 110 | 1 to 10 | Cc1nc2c(-c3ccc(Cl)cc3F)nc(N3CC(c4cnn(C)c4)OC4(CCC4)C3)nc2c(=O)n1C (centres unmarked) [Example 90, 8-(4-chloro-2-fluorophenyl)-2,3-dimethyl-6-(6-(1-methyl-1H-pyrazol-4-yl)-5-oxa-8-azaspiro(3,5)nonan-8-yl)pyrimido(5,4-d)pyrimidin-4 (3H)-one]
16 | 75 to 110 | 1 to 10 | Cc1nc2c(-c3ccc(Cl)cc3F)nc(N3CCOC(c4cnn(C)n4)C3)nc2c(=O)n1C (centres unmarked) [Example 91, 8-(4-chloro-2-fluorophenyl)-2,3-dimethyl-6-(2-(2-methyl-2H-1,2,3-triazol-4-yl)morpholino)pyrimido[5,4-d]pyrimidin-4 (3H)-one]
17 | < 75 | 100 to 1000 | Cc1nc2c(-c3cc(C(F)(F)F)nn3C)nc(N3CCOC(c4cnn(C)c4)C3)nc2c(=O)n1C (centres unmarked) [Example 99, 2,3-dimethyl-6-(2-(1-methyl-1H-pyrazol-4-yl)morpholino)-8-(1-methyl-3-(trifluoromethyl)-1H-pyrazol-5-yl)pyrimido[5,4-d]pyrimidin-4 (3H)-one]
18 | 75 to 110 | 100 to 1000 | Cc1nc2c(-c3ccc(Cl)cc3F)cc(N3CCOC(c4cnn(C)c4)C3)nc2c(=O)n1C (centres unmarked) [Example 104, 8-(4-chloro-2-fluorophenyl)-2,3-dimethyl-6-(2-(1-methyl-1H-pyrazol-4-yl)morpholino)pyrido[3,2-d]pyrimidin-4 (3H)-one]
19 | < 75 | 100 to 1000 | Cc1nc2c(-c3ccc(Cl)cc3F)cc(N3CCOC(c4cnn(C)c4)C3)cc2c(=O)n1C (centres unmarked) [Example 106, 8-(4-chloro-2-fluorophenyl)-2,3-dimethyl-6-(2-(1-methyl-1H-pyrazol-4-yl)morpholino)quinazolin-4 (3H)-one]
20 | 75 to 110 | 1 to 10 | Cc1nc2c(C34CC(C(F)(F)F)(C3)C4)nc(N3CCO[C@@H](c4cnn(C)c4)C3)nc2c(=O)n1C [Example 113, (S)-2,3-dimethyl-6-(2-(1-methyl-1H-pyrazol-4-yl)morpholino)-8-(3-(trifluoromethyl)bicyclo[1.1.1]pentan-1-yl)pyrimido[5,4-d]pyrimidin-4 (3H)-one]
21 | 75 to 110 | 1 to 10 | Cc1cc2c(-c3ccc(Cl)cc3F)nc(N3CCOC(c4cnn(C)c4)C3)nc2c(=O)n1C (centres unmarked) [Example 114, 4-(4-chloro-2-fluorophenyl)-6,7-dimethyl-2-(2-(1-methyl-1H-pyrazol-4-yl)morpholino)pyrido[3,4-d]pyrimidin-8 (7H)-one]
22 | 75 to 110 | 1 to 10 | Cc1nc2c(-c3ccc(Cl)cc3F)nc(N3CC(c4cnn(C)c4)OC(F)(F)C3)nc2c(=O)n1C (centres unmarked) [Example 115, 8-(4-chloro-2-fluorophenyl)-6-(2,2-difluoro-6-(1-methyl-1H-pyrazol-4-yl)morpholino)-2,3-dimethylpyrimido[5,4-d]pyrimidin-4 (3H)-one]
23 | < 75 | 100 to 1000 | Cc1nc2c(-c3ccc(Cl)cc3F)nc(N3CC(c4cnn(C)c4)OC4(CC4)C3)c(F)c2c(=O)n1C (centres unmarked) [Example 157, 8-(4-chloro-2-fluorophenyl)-5-fluoro-2,3-dimethyl-6-(5-(1-methyl-1H-pyrazol-4-yl)-4-oxa-7-azaspiro[2.5]octan-7-yl)pyrido[3,4-d]pyrimidin-4 (3H)-one]
24 | < 75 | 100 to 1000 | Cn1cc(C2CN(c3nc(-c4ccc(F)cc4F)c4nc(C(F)(F)F)n(C)c(=O)c4c3F)CC3(CC3)O2)cn1 (centres unmarked) [Example 158, 8-(2,4-difluorophenyl)-5-fluoro-3-methyl-6-(5-(1-methyl-1H-pyrazol-4-yl)-4-oxa-7-azaspiro[2.5]octan-7-yl)-2-(trifluoromethyl)pyrido[3,4-d]pyrimidin-4 (3H)-one]
25 | < 75 | 100 to 1000 | Cn1c(C(F)(F)F)nc2c(-c3ccc(F)cc3F)nc(C3CCOC(c4cnn(C5CC5)c4)C3)c(F)c2c1=O (centres unmarked) [Example 167, 6-(2-(1-cyclopropyl-1H-pyrazol-4-yl)tetrahydro-2H-pyran-4-yl)-8-(2,4-difluorophenyl)-5-fluoro-3-methyl-2-(trifluoromethyl) pyrido[3,4-d]pyrimidin-4 (3H)-one]
26 | 75 to 110 | 1 to 10 | Cc1cc([C@H]2C[C@@H](c3cc4c(=O)n(C)c(C)nc4c(-c4ccc(F)cc4F)n3)C[C@@H](C)O2)ccn1 [Example 185]
27 | < 75 | 10 to 100 | Cn1cc(C2CN(c3nc(-c4ccc(Cl)cc4F)c4ncn(C)c(=O)c4n3)CCO2)cn1 (centres unmarked) [Example 187, 8-(4-chloro-2-fluorophenyl)-3-methyl-6-(2-(1-methyl-1H-pyrazol-4-yl)morpholino)pyrimido[5,4-d]pyrimidin-4 (3H)-one]
28 | < 75 | 10 to 100 | Cc1nc2c(-c3ccc(Cl)cc3F)nc(N3CCn4nc(C(F)(F)F)nc4C3)nc2c(=O)n1C [Example 188, 8-(4-chloro-2-fluorophenyl)-2,3-dimethyl-6-(2-(trifluoromethyl)-5,6-dihydro-[1,2,4]triazolo[1,5-a]pyrazin-7 (8H)-yl)pyrimido[5,4-d]pyrimidin-4 (3H)-one]
